Results from patent US12552800B2, “Compounds for diagnosis” (AC IMMUNE SA, priority 2020, dated 2026).

What was measured:
[1] = target: T1, Abeta pathological aggregates (Homo sapiens, UniProt P05067); assay: Radiobinding competition assay against [^3H]-Abeta-Ref on AD brain homogenates (example compound 4); format: binding; details: displacement of [^3H]-Abeta-Ref at 10 nM, AD brain-derived homogenates
T1 construct: Abeta pathological aggregates present in the human AD brain homogenates; from tissue; host or cells: human AD donor brain, Triton/sucrose-insoluble 100,000 x g pellet
T1 sequence (P05067 672-713 limits assumed): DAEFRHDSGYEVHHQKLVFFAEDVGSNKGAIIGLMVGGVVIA
Procedure: The procedure was adapted from the protocol described in Bagchi et al., 2013. Frozen tissue blocks from AD donors were thawed on ice and homogenized in high salt buffer (50 mM Tris-HCl pH 7.5, 0.75M NaCl, 5 mM EDTA) supplemented with protease inhibitors (Complete; Roche 11697498001) at 4° C. using a glass Dounce homogenizer. The homogenate was centrifuged at 100,000×g (38,000 RPM) in an ultracentrifuge (Beckman, XL100K) for one hour at 4° C. using a pre-cooled 70.1 rotor (Beckman, 342184). Pellets were resuspended in high salt buffer supplemented with 1% Triton X-100 and homogenized at 4° C. using a glass Dounce homogenizer. The homogenates were centrifuged again at 100,000×g (38,000 RPM, 70.1 rotor) for one hour at 4° C. Pellets were resuspended in high salt buffer supplemented with 1% Triton X-100 and 1 M sucrose and homogenized at 4° C. using a glass Dounce homogenizer. The homogenates were centrifuged at 100,000×g (38,000 RPM, 70.1 rotor) for one hour at 4° C. […]
A fixed concentration of AD insoluble fraction was incubated with a tritiated reference Abeta ligand ([^3H]-Abeta-Ref) at 10 nM and increasing concentrations of non-radiolabelled example compound 1 in the range of 400 pM to 2 μM for two hours at RT. […] The filters were analyzed on a Microbeta2 scintillation counter (PerkinElmer). […]

[2] = target: T2, PD brain-derived a-syn aggregates (Homo sapiens, UniProt P37840); assay: Micro-radiobinding competition assay against Example-1 [^3H-1] (Table 8); format: binding
T2 construct: from tissue; host or cells: human PD donor brain, sarkosyl-insoluble 100,000 x g pellet
Procedure, shortened: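 Human PD brain-derived α-syn aggregates on microarray slides were co-incubated with 6 nM or 20 nM tritiated radioligand and unlabelled compound at 1 μM and 100 nM, some over 0.05 nM–2 μM. Bound signal read by real-time autoradiography; values are % competition, at least two technical replicates, mean of independent experiments.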

Compound: Cn1cc(N2Cc3nn(-c4ccc(N5CC[C@@H](F)C5)nc4)cc3C2=O)cn1 [Example 4]
- Ki [1]: 297 nM
- Competition at 100 nM (%) ([2]; 100 nM non-radiolabelled example compound vs Example-1 [^3H-1] ligand, human PD brain-derived a-syn aggregates): 58%
- Competition at 1 μM (%) ([2]; 1 μM non-radiolabelled example compound vs Example-1 [^3H-1] ligand, human PD brain-derived a-syn aggregates): 92%
- Ki ([2]; mean of Ki values in independent experiments using PD brain-derived homogenates from three different donors): 50 nM
